From patent publication EP0855181A2 (priority 1997, dated 1998)
Read-outs that look alike come from different tables or passages of the source.

Key:
[1] = system: Human neutrophils (PMN)
Procedure: Human neutrophils (PMN) are isolated from EDTA-anticoagulated blood by Ficoll-density-centrifugation and by dextran sedimenation as described by Böyum, A. in Scand. J. Clin. Lab. Invest. 21(Suppl. 97):77-89, 1968.Variable concentrations of glycine (4.0 mM, 0.4 mM and 0.04 mM in a volume of 50 µl) and as a control 50 µl PBS are incubated with human neutrophils (2x10^7 cells/ml in a volume of 500 µl in Ca/Mg (1/0.5mM) and 0.25mM luminol) for 20 min at 37°C and stimulation is subsequently carried out with fMLP (N-formyl-methionyl-leucyl-phenylalanine, 10^-5M), NaF (20mM) or PMA (10 ng), each in a volume of 50µl, for 30 min at 37°C. fMLP is a receptor-mediated stimulus, NaF is a G-protein-mediated activator of cells and PMA activates the protein kinase C. As a control neutrophils are incubated with the variable glycine concentrations without subsequent stimulation. Respiratory burst is measured by chemiluminescence response of oxygen radicals essentially as described in Immunology, 1992, 76, 86-94.

[2] = system: Neutrophils (PMNs)
Procedure: Neutrophils (PMNs, isolated as described in example 2, in a concentration of 2x10^7/ml in a volume of 500µl + 50 µl 1mM Ca/0.5mM Mg) are preincubated with glycine (0.0004mM, 0.004mM, 0.04mM, 0.4mM and 4mM in a volume of 50µl) for 20 or 30 minutes at 37°C. Subsequently they are treated with cytochalasin (50 µl, 10^-5M) and stimulated with 50 µl fMLP (10^-5M), NaF (20mM), or primed with 50µl GM-CSF (10ng) and subsequently stimulated with 50µl NaF (20mM), fMLP (10^-5M) or Ca-ionophore (5µM) and incubated for a further 20 minutes at 37°C. Leukotrienes are measured by HPLC as described in Immunology 67:401-407.

[3] = system: Peripheral mononuclear cells
Procedure: Peripheral mononuclear cells (as in example 2 but in a concentration of 10^6/ml) are pre-incubated with SEB at variable concentrations (50 µl of 1 ng/ml, 0,1 ng/ml and 0.01 ng/ml) in the presence of variable concentrations of glycine (as above) for 24h, 48h and 72h or pre-incubated with glycine and subsequently stimulated with different concentrations of SEB.

[4] = system: Peripheral mononuclear cells; conditions: glycine 0.00004-40 mM, 14 days, interleukin-4 and anti-CD40
Procedure: To this end, peripheral mononuclear cells (as in example 1) were incubated with variable concentrations of glycine (0.00004mM, 0.0004mM, 0.004mM, 0.04mM, 0.4mM, 4mM, 40mM). The incubation time is carried out over 14 days. The cells were stimulated in the presence of glycine with interleukin-4 and anti-CD40 as B-cell activator. In the supernatant, the IgM, IgA, IgG and IgE synthesis was analysed.

[5] = system: superantigen primed neutrophils
[6] = system: Peripheral mononuclear cells (PMNs)
[7] = system: Peripheral mononuclear cells (PMNs); remark: listed apart in the source
[8] = system: lymphocytes, monocytes, basophils (LMBs)
[9] = system: lymphocytes, monocytes, basophils (LMBs); remark: listed apart in the source
[10] = system: LMBs
[11] = cells primed with GM-CSF, variable glycine, then NaF
[12] = glycine pre-incubation over 30 minutes

SMILES: NCC(=O)O [glycine]
- respiratory burst ([1]; glycine 0.04 mM, then fMLP): further modulation
- oxygen metabolites (respiratory burst) ([1]; glycine 4.0, 0.4, 0.04 mM, 20 min at 37°C, no subsequent stimulation): no effect
- respiratory burst ([1]; glycine pre-incubation, then NaF (20mM)): dose-dependent suppression and also an increase
- respiratory burst ([1]; glycine pre-incubation, then PMA (10 ng)): No changes
- LTB4 generation [2, 11]: inhibition
- LTC4 generation [2, 11]: inhibition
- LTB4 generation ([2]; cells primed with GM-CSF, variable glycine, then calcium ionophore): marginal increase
- LTB4 release ([2]; cells primed with GM-CSF, variable glycine, then fMLP): fluctuating
- fMLP-induced LTE4 generation ([2]; glycine 4.0 mM): suppressing influence
- LTB4 release [2, 12]: increase
- LTC4 release [2, 12]: suppression
- omega-LTB4 release [2, 12]: increase
- leukotriene-E4 ([2]; neutrophils activated with calcium ionophore in the presence of glycine): very strong suppression
- LTB4 generation ([2]; neutrophils in the presence of glycine, fMLP): suppression
- interferon-γ release ([3]; 48 hours glycine pre-incubation, subsequent RSV stimulation): intense increase
- interferon-γ release ([3]; 48 hours glycine pre-incubation, subsequent SEB stimulation (Fig. 2), refers to intense increase): similarly indicated
- interferon-γ release ([3]; RSV used instead of SEB): dose-dependent increase
- interferon-γ release ([3]; SEB with glycine, incubation of up to 48 hours): Marginal effects
- interferon-γ release ([3]; glycine pre-incubation over 72 hours, SEB as activator): increase
- release of interferon-γ ([3]; glycine pre-incubation, subsequent SEB stimulation): extremely potent release
- interferon-γ concentration ([3]; very long glycine pre-incubation and subsequent stimulation): reduction
- induced IgE synthesis [4]: no affect
- other immunoglobulins (IgM, IgA, IgG synthesis) [4]: no changes
- 20-carboxy-LTB4 [5]: drop
- LTC4 [5]: increase
- cysteinyl leukotrienes [5]: increase
- omega-LTB4 generation [5]: increase
- release of 12-HETE [5]: increase
- IL-8 release [6]: significant increase
- interleukin-8 release ([6]; cells pre-incubated with interferon-γ, then staphylococcus enterotoxin B): dose-dependent stimulation
- interleukin-8 release ([6]; staphylococcus enterotoxin B stimulation): marginal increase
- TNF release ([7]; GM-CSF (10 ng) primed model, then SEB (10 ng)): suppression
- TNF release ([7]; RSV as stimulus): modulation
- TNF release ([7]; conditions of the interleukin-8 experiments): no significant changes
- TNF ([7]; glycine 0.0004-0.4 mM pre-incubation, then SEB (10 ng)): dose-dependent increase
- SEB-induced TNF release ([7]; glycine pre-incubation, then SEB): increase
- TNF release ([7]; glycine pre-incubation, then SEB, in dependence on stimulus): suppression
- TNF release ([7]; phospholipase C at variable concentrations as stimulus, 'also applies' refers to modulation): This also applies
- interleukin-10 [8]: increase
- release of interleukin-10 ([8]; glycine combined with staphylococcus enterotoxin B (Fig. 1)): significant release
- SEB-induced TNF-α release [9]: marked suppression
- TNF-α [9]: increase
- phospholipase C induced TNF-α release [9]: great suppression
- suppression of the TNF-α release [9]: lower
- staphylococcus enterotoxin B induced TNF-α release ([9]; LMBs incubated with interferon-γ 24 hours, then SEB): great suppression
- interleukin-12 release ([10]; GM-CSF priming, glycine 2 hours, then SEB, eliminated with low glycine concentrations): marginal reduction
- interleukin-12 release ([10]; glycine incubation alone, low concentrations of glycine): stimulatory effect
